Test results: patent publication US12209074B2, “SHP2 phosphatase allosteric inhibitor” (BEIJING SHENOGEN PHARMA GROUP LTD., priority 2019, dated 2025)

Tested on: Human non-small cell lung cancer NCI-H358
Assay: Cell proliferation assay (CellTiter-Glu) in NCI-H358
Format: cell-based
Conditions: 5 days, NCI-H358 cells, cell viability by CellTiter-Glu, compound 0.3 nM-2 μM, medium and compound renewed after 3 days
Procedure: Cell proliferation inhibition screening method was established by CellTier-Glu® test reagent from Promega.
Human non-small cell lung cancer NCI-H358 was cultured by RPMI-1640 (Gibco®) medium with 10% fetal bovine serum (Gibco®) at 37° C., 95% air and 5% CO2, in 25 cm^2 or 75 cm^2 plastic culture bottle ((Nunc®) and passaged 2-3 times a week.
The cells were seeded on the 96 well cell culture plate (Nunc®) at the density of 2*10^3/well, 90 μL/well, and cultured at 37° C., 95% air and 5% CO2. The compound to be tested was added 24 hours later: the compound was diluted 3 times with DMSO from the concentration of 2 mM compound (dissolved in DMSO). […] 10 μL of the compound diluted by culture medium was added into the culture plate seeded with cells. The final concentration of DMSO in cell culture medium was 0.1%, and the final concentration of test compound was 0.3 nM-2 μM. The cells were incubated at 37° C. for 3 days. The culture medium was substituted with 90 μL/well fresh complete medium. According to the above diluting method of compounds, the compound to be tested was added.
After 5 days, cell viability was tested by CellTiter-Glu (Promega) kit, and finally, the semi-inhibitory concentration of compounds on cell proliferation, i.e. IC50 was calculated by Prism program.

SMILES | IC50 [nM]
Cc1nc(N2CCC3(CC2)Cc2ccccc2[C@H]3N)c(C(N)=O)nc1-c1cccc(Cl)c1Cl [Compound 6, (S)-3-(1-amino-1,3-dihydrospiro[indene-2,4′-piperidin]-1′-yl)-6-(2,3-dichlorophenyl)-5-methylpyrazine-2-carboxamide] | > 1000
Cc1nc(N2CCC3(CC2)Cc2ccccc2[C@H]3N)c(C#N)nc1-c1cccc(Cl)c1Cl [Compound 7, (S)-3-(1-amino-1,3-dihydrospiro[indene-2,4′-piperidin]-1′-yl)-6-(2,3-dichlorophenyl)-5-methylpyrazine-2-carbonitrile] | > 1000
Cc1nc(N2CCC3(CC2)Cc2cccc(C#N)c2[C@H]3N)c(CO)nc1-c1cccc(Cl)c1Cl [Compound 8, (S)-1-amino-1′-(5-(2,3-dichlorophenyl)-3-(hydroxymethyl)-6-methylpyrazin-2-yl)-1,3-dihydrospiro[indene-2,4′-piperidine]-7-carbonitrile] | > 1000
Cc1nc(N2CCC3(CC2)Cc2ccccc2[C@H]3N)c(CO)nc1-c1cccnc1C(F)(F)F [Compound 12, (S)-(3-(1-amino-1,3-dihydrospiro[indene-2,4′-piperidin]-1′-yl)-5-methyl-6-(2-(trifluoromethyl)pyridin-3-yl)pyrazin-2-yl)methanol] | > 1000
COc1ccc2c(c1)[C@@H](N)C1(CCN(c3nc(C)c(-c4cccc(Cl)c4Cl)nc3CO)CC1)C2 [Compound 14] | 56
Cc1nc(N2CCC3(CC2)Cc2ccccc2[C@H]3N)c(CO)nc1-c1ccccc1Br [Compound 16] | 261
Cc1nc(N2CCC3(CC2)Cc2ccccc2[C@H]3N)c(CO)nc1-c1ccc2c(cnn2C)c1 [Compound 18] | 630
Cc1nc(N2CCC3(CC2)Cc2ccccc2[C@H]3N)c(CO)nc1-c1ccnc(Cl)c1Cl [Compound 19] | 29
Cc1nc(N2CCC3(CC2)Cc2ccccc2[C@H]3N)c(CO)nc1-c1ccc(Cl)c(Cl)c1 [Compound 22] | 195
Cc1nc(N2CCC3(CC2)Cc2ccccc2[C@H]3N)c(CO)nc1-c1ccccc1Cl [Compound 23] | 479
Cc1nc(N2CCC3(CC2)Cc2ccccc2[C@@H]3N)c(CO)nc1-c1cccc(Cl)c1Cl [Compound 24] | > 1000
Cc1nc(N2CCC3(CC2)Cc2cccc(Br)c2[C@H]3N)c(CO)nc1-c1cccc(Cl)c1Cl [Compound 28] | > 1000
Cc1nc(N2CCC3(CC2)Cc2ccc(N=S(C)(C)=O)cc2[C@H]3N)c(CO)nc1-c1cccc(Cl)c1Cl [Compound 29] | 199
Cc1nc(N2CCC3(CC2)Cc2ccc(Br)cc2[C@H]3N)c(CO)nc1-c1cccc(Cl)c1Cl [Compound 32] | 29
Cc1nc(N2CCC3(CC2)Cc2ccc(Cl)cc2[C@H]3N)c(CO)nc1-c1cccc(Cl)c1Cl [Compound 33] | 17
Cc1nc(N2CCC3(CC2)Cc2cccnc2[C@H]3N)c(CO)nc1-c1cccc(Cl)c1Cl [Compound 35] | 101
Cc1nc(N2CCC3(CC2)Cc2ccc(OC(F)(F)F)cc2[C@H]3N)c(CO)nc1-c1cccc(Cl)c1Cl [Compound 36] | 31
Cc1nc(N2CCC3(CC2)Cc2cnccc2[C@H]3N)c(CO)nc1-c1cccc(Cl)c1Cl [Compound 38] | > 1000
Cc1cnc2c(c1)[C@@H](N)C1(CCN(c3nc(C)c(-c4cccc(Cl)c4Cl)nc3CO)CC1)C2 [Compound 39] | 11
Cc1nc(N2CCC3(CC2)Cc2ncccc2[C@H]3N)c(CO)nc1-c1ccnc(Cl)c1Cl [Compound 40] | 30
COc1ccc(-c2nc(CO)c(N3CCC4(CC3)Cc3ccccc3[C@H]4N)nc2C)c(Cl)c1 [Compound 41] | 97
Cc1nc(N2CCC3(CC2)Cc2ccccc2[C@H]3N)c(CO)nc1-c1cncc(Cl)c1Cl [Compound 43] | 225
Cc1nc(N2CCC3(CC2)Cc2ccccc2[C@H]3N)c(CO)nc1-c1cncc(Cl)c1 [Compound 44] | > 1000
Cc1nc(N2CCC3(CC2)Cc2ccccc2[C@H]3N)c(CO)nc1-c1cnc(N)cc1Cl [Compound 45] | > 1000
Cc1ccc2c(c1)[C@H](N)C1(CCN(c3nc(C)c(-c4ccnc(Cl)c4Cl)nc3CO)CC1)C2 [Compound 48] | > 1000
Cc1cnc2c(c1)[C@H](N)C1(CCN(c3nc(C)c(-c4ccnc(Cl)c4Cl)nc3CO)CC1)C2 [Compound 50] | 453
COc1ccc(-c2nc(CO)c(N3CCC4(CC3)Cc3ccccc3[C@H]4N)nc2C)c(Cl)c1Cl [Compound 53] | 328
COc1ccc(-c2nc(CO)c(N3CCC4(CC3)Cc3ccccc3[C@H]4N)nc2C)c(Cl)n1 [Compound 56] | 182
CNc1cc(Cl)c(-c2nc(CO)c(N3CCC4(CC3)Cc3ccccc3[C@H]4N)nc2C)cn1 [Compound 58] | > 1000

More lines, now with the values ahead:

IC50 [nM] | SMILES
273 | Cc1nc(N2CCC3(CC2)Cc2ccc(NS(C)(=O)=O)cc2[C@H]3N)c(CO)nc1-c1cccc(Cl)c1Cl [Compound 3, (S)—N-(1-amino-1′-(5-(2,3-dichlorophenyl)-3-(hydroxymethyl)-6-methylpyrazin-2-yl)-1,3-dihydrospiro[indene-2,4′-piperidin]-6-yl) methanesulfonamide]
817 | Cc1nc(N2CCC3(CC2)Cc2ccc(C(C)(C)O)cc2[C@H]3N)c(CO)nc1-c1cccc(Cl)c1Cl [Compound 4, (S)-2-(1-amino-1′-(5-(2,3-dichlorophenyl)-3-(hydroxymethyl)-6-methylpyrazin-2-yl)-1,3-dihydrospiro[indene-2,4′-piperidin]-6-yl)propan-2-01]
98 | Cc1nc(N2CCC3(CC2)Cc2ccc(C(N)=O)cc2[C@H]3N)c(CO)nc1-c1cccc(Cl)c1Cl [Compound 5, (S)-1-amino-1′-(5-(2,3-dichlorophenyl)-3-(hydroxymethyl)-6-methylpyrazin-2-yl)-1,3-dihydrospiro[indene-2,4′-piperidine]-6-carboxamide]
> 1000 | Cc1nc(N2CCC3(CC2)Cc2cc(NS(C)(=O)=O)ccc2[C@H]3N)c(CO)nc1-c1cccc(Cl)c1Cl [Compound 9, (S)—N-(1-amino-1′-(5-(2,3-dichlorophenyl)-3-(hydroxymethyl)-6-methylpyrazin-2-yl)-1,3-dihydrospiro[indene-2,4′-piperidin]-5-yl)methanesulfonamide]
> 1000 | Cc1nc(N2CCC3(CC2)Cc2ccccc2[C@H]3N)c(CO)nc1-c1ccnc(N)c1Cl [Compound 10, (S)-(3-(1-amino-1,3-dihydrospiro[indene-2,4′-piperidin]-1′-yl)-6-(2-amino-3-chloropyridin-4-yl)-5-methylpyrazin-2-yl)methanol]
405 | N[C@@H]1c2ccccc2CC12CCN(c1ncc(-c3cccc(Cl)c3Cl)nc1CO)CC2 [Compound 11, (S)-(3-(1-amino-1,3-dihydrospiro[indene-2,4′-piperidin]-1′-yl)-6-(2,3-dichlorophenyl)pyrazin-2-yl)methanol]
590 | Cc1cccc(-c2nc(CO)c(N3CCC4(CC3)Cc3ccccc3[C@H]4N)nc2C)c1C [Compound 15]
464 | Cc1nc(N2CCC3(CC2)Cc2ccccc2[C@H]3N)c(CO)nc1-c1ccc2[nH]ncc2c1 [Compound 17]
48 | Cc1ccc2c(c1)[C@@H](N)C1(CCN(c3nc(C)c(-c4cccc(Cl)c4Cl)nc3CO)CC1)C2 [Compound 20]
37 | Cc1cccc(-c2nc(CO)c(N3CCC4(CC3)Cc3ccccc3[C@H]4N)nc2C)c1Cl [Compound 25]
449 | Cc1nc(N2CCC3(CC2)Cc2ccccc2[C@H]3N)c(CO)nc1-c1cc2ccccc2[nH]1 [Compound 26]
> 1000 | Cc1nc(N2CCC3(CC2)Cc2cc(C(N)=O)ccc2[C@H]3N)c(CO)nc1-c1cccc(Cl)c1Cl [Compound 27]
207 | Cc1nc(N2CCC3(CC2)Cc2c(C#N)cccc2[C@H]3N)c(CO)nc1-c1cccc(Cl)c1Cl [Compound 30]
249 | Cc1nc(N2CCC3(CC2)Cc2ccc(S(C)(=O)=O)cc2[C@H]3N)c(CO)nc1-c1cccc(Cl)c1Cl [Compound 31]
90 | Cc1nc(N2CCC3(CC2)Cc2ccc(C(F)(F)F)cc2[C@H]3N)c(CO)nc1-c1cccc(Cl)c1Cl [Compound 34]
75 | Cc1nc(N2CCC3(CC2)Cc2ccncc2[C@H]3N)c(CO)nc1-c1cccc(Cl)c1Cl [Compound 37]
732 | Cc1nc(N2CCC3(CC2)Cc2ccccc2[C@H]3N)c(CO)nc1-c1ccc(S(C)(=O)=O)cc1Cl [Compound 42]
379 | COc1ccc(-c2nc(CO)c(N3CCC4(CC3)Cc3ncccc3[C@H]4N)nc2C)c(Cl)c1 [Compound 46]
81 | Cc1cnc2c(c1)[C@@H](N)C1(CCN(c3nc(C)c(-c4ccncc4Cl)nc3CO)CC1)C2 [Compound 51]
> 1000 | Cc1cnc2c(c1)[C@H](N)C1(CCN(c3nc(C)c(-c4ccncc4Cl)nc3CO)CC1)C2 [Compound 52]
83 | Cc1nc(N2CCC3(CC2)Cc2ccccc2[C@H]3N)c(CO)nc1-c1cc(N)nc(C)c1Cl [Compound 54]
> 1000 | Cc1ccnc(-c2nc(CO)c(N3CCC4(CC3)Cc3ccccc3[C@H]4N)nc2C)c1Cl [Compound 55]
> 1000 | Cc1nc(N2CCC3(CC2)Cc2ccccc2[C@H]3N)c(CO)nc1-c1ccc(=O)[nH]c1Cl [Compound 57]
115 | CNc1ccc(-c2nc(CO)c(N3CCC4(CC3)Cc3ccccc3[C@H]4N)nc2C)c(Cl)c1C(F)(F)F [Compound 59]
